# Assay results as given in US20200354327A1, “COMPOUND HAVING STAT3 INHIBITORY ACTIVITY AND USE THEREOF” (CYTUS H&B CO., LTD., priority 2017, published 2020).
# Assays:
# [1] = tested on: MDA-MB-231 cells; experiment: Matrigel invasion assay, MDA-MB-231; format: cell-based, human; conditions: MDA-MB-231, 24 hours, versus DMSO
# Method: The growth factor-reduced Matrigel was diluted with a serum-free culture solution at a 1:3 ratio, transferred to a 24-well plate, and solidified at 37° C. for 5 hours. The cells were placed in a culture solution containing 1% serum and added to the solidified Matrigel, 600 μl of a culture solution containing 10% serum to which fibronectin was added at a concentration of […] was added thereto, and the cells were cultured for 24 hours. Thereafter, the cells were fixed and stained by adding Diffquick solution thereto and then observed under a Leica Application Suite microscope, and images were taken.
# [2] = tested on: MDA-MB-231 cells; experiment: Wound healing assay, MDA-MB-231; format: cell-based, human; conditions: MDA-MB-231, 24 hours
# Method: Wound healing assay was performed as previously described (Jung J E, et al. FASEB J. 19, 1296-1298 (2005)). The respective cells were dispensed into a 12-well plate (U87-MG: 5×10^5 cells/ml; MDA-MB-231: 3×10^5 cells/ml) and cultured until the cells proliferated 90% or more. Cells scraped off from the plate with the tip of the pipette were washed two times with PBS. After 24 hours, the proliferation (invasion) of cells at the part from which the cells were had been removed was observed under a microscope, and images were taken.
# [3] = target: T1, STAT3 (Homo sapiens, UniProt P40763); experiment: STAT3-TA-luciferase assay in HEK293T cells; format: cell-based
# T1 sequence (P40763 whole entry): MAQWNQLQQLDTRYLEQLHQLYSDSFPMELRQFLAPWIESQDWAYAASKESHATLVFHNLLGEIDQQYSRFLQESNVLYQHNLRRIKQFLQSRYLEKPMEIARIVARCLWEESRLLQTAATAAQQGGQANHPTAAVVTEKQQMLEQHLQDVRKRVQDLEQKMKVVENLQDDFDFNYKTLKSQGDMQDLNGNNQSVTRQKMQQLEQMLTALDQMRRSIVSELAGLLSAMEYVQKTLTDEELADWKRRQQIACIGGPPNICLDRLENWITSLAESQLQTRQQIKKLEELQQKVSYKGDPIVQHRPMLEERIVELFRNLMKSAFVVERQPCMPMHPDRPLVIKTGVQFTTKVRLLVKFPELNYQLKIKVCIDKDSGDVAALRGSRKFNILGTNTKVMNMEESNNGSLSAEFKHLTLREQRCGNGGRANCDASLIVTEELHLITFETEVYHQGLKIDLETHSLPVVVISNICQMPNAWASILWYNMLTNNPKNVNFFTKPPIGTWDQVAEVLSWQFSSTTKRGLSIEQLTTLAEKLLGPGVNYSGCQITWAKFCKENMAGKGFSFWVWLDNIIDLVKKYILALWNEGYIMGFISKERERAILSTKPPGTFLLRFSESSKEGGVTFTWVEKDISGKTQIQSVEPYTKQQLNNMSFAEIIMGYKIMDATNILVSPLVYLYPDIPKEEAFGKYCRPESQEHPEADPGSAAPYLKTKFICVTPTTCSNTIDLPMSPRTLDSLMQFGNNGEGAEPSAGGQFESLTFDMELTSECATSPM
# Method: Assay on the expression of luciferase was performed as previously described (Jung J E, et al. FASEB J. 19, 1296-1298 (2005)). Plasmid DNA having STAT3-TA-luciferase as a reporter construct was temporarily expressed in HEK293T cells using Lipofectamine 2000, the HEK293T cells were treated with ODZ10117, the level of STAT3 expression was measured using a luminometer, and the inhibitory effect was compared with that of the DMSO-treated group.
# [4] = tested on: Bcl-2 and Bcl-XL; experiment: Real-time polymerase chain reaction of anti-apoptotic genes; format: cell-based, human
# Method: RNA isolation and real-time polymerase chain reaction were performed as described previously (Jung J E, et al. FASEB J. 19, 1296-1298 (2005)). Primer specific for human-derived Bcl-XL, Bcl-2, Twist, and GADPH genes were mixed with QuantiFast SYBR Green PCR master mix, and each gene was amplified using the Applied Biosystems 7300 real-time PCR system to compare the expression level.
# [5] = target: T1, STAT3; experiment: Western blot in U87-MG and MDA-MB-231 cells; format: cell-based; parameters: endogenous in cells; host or cells: L540, HDLM-2, U87-MG, MDA-MB-231, further human glioblastoma and breast cancer lines
# Method: The human cancer cell lines used in the experiment were U87-MG (human malignant glioblastoma) and MDA-MB-231 (human malignant breast cancer) cell lines, and various kinds of human-derived blood and solid cancer cells including these human cancer cell lines were cultured as previously described (Jung J E, et al. FASEB J. 19, 1296-1298 (2005)). The human Hodgkin lymphoma cancer cell lines L540 and HLDM-2 used in the experiment were obtained from the German Collection of Microorganism and Cell Cultures (DSMZ, Germany) and cultured using RPMI 1640 medium containing 20% FBS in a 5% CO2 incubator at a temperature of 37° C.
# Western blot analysis was performed (Jung J E, et al. FASEB J. 19, 1296-1298 (2005)). The cells were washed two times with PBS and suspended in the lysate (50 mM Tris-HCl, pH 7.4, 350 mM NaCl, 1% Triton X-100, 0.5% Nonidet P-40, 10% glycerol, 0.1% SDS, 1 mM EDTA, 1 mM EGTA, 1 mM Na3VO4, 1 mM PMSF, protease and phosphorylation inhibitor) and the cell membrane and nuclear membrane were crushed to lyse the cells. The insoluble protein fraction was removed by centrifugation, and the supernatant was mixed with SDS electrophoresis buffer and electrophoresis (SDS-PAGE) was performed to detect the protein with the desired antibody and to confirm the protein expression level.
# [6] = tested on: MDA-MB-231 cells; experiment: Human tumor cell xenograft, MDA-MB-231; format: in vivo, BALB/c nude mice; conditions: MDA-MB-231 xenograft, injected directly into the tumor, versus DMSO
# Method: Male Nude Mouse (BALB/cAnNCrj-nu/nu) was purchased from Charles River Japan Inc. (Shin-Yokohama, Japan). The mouse was bred in a clean room in which the temperature and humidity were constantly controlled. The breeding process was carried out according to the method described in the manual for maintenance of laboratory animals in Seoul National University. U87-MG cells or MDA-MB-231 cells were diluted with PBS, suspended in 100 μl of Matrigel at 25% concentration, and injected into the back of mouse and bred for 6 to 10 weeks. Human tumor growth was measured every other day using a vernier caliper from 2 weeks after cell injection. With regard to the degree of inhibition of human tumor cell formation, 40 μM of ODZ10117 was directly injected into the human tumor on days 0, 3, and 5 from week 4 of tumor cell injection. On the 7th day, the mouse was sacrificed to separate the tumor, and the tumor cell inhibitory efficacy of the drug was measured by being compared with that of the control group treated with 1% DMSO.
# [7] = tested on: p-STAT3, Cleaved Caspase-3, Bcl-XL, Ki67 and MMP2; experiment: Tumor histology and immunostaining of xenograft tumor sections; format: in vivo, BALB/c nude mice; conditions: 7th day of drug administration
# Method: Tumors isolated from mice were fixed with formalin and embedded with paraffin, and sections were cut from each paraffin block. For histological evaluation, the sections were stained with hematoxylin-eosin, phospho-STAT3, cleaved caspase-3, Bcl-XL, Ki67, and pro/active MMP-2, respectively. The paraffin of the sections was removed, moisture was removed using alcohol, and then the sections were heated in 10 mM sodium citrate buffer (pH: 6.0) for 5 minutes with microwaves. Non-specific binding was removed by reacting the sections with a PBS solution containing 2.5% bovine serum albumin and 2% normal goat serum for 1 hour. The sections were reacted with antibodies against phospho-STAT3, cleaved caspase-3, Bcl-XL, Ki67, and pro/active MMP-2 diluted 1:100 overnight at 4° C. As a negative control, the sections were reacted with a dilution solution in a state of not containing primary antibodies. The sections were then washed and reacted with secondary antibodies labeled with appropriate biotin, and the location and expression of the bound antibodies were confirmed using an avidin-biotin-horseradish complex. For histological evaluation, each stained section was observed under a microscope at 100-fold and 400-fold magnifications and analysis was performed using a Sony XC-77 CCD camera and a microcomputer imaging device Model 4 image analysis system.
smiles,measurement,setting,value
"Clc1ccc(OCc2noc(C(Cl)(Cl)Cl)n2)c(Cl)c1 [ODZ10117, 3-(2,4-dichloro-phenoxymethyl)-5-trichloromethyl-[1,2,4]oxadiazole]",cell invasion,[1],significantly decreased cell invasion in both the two cell lines
same,cell migration,[2],significantly inhibited the migration of these cells
same,promoter activity of STAT3,[3]; compared with DMSO-treated group,significantly decreased the promoter activity of STAT3
same,transcriptional activity of STAT3,[3]; various concentrations,inhibited the transcriptional activity of STAT3 in a concentration-dependent manner
same,expression levels of anti-apoptotic genes Bcl-2 and Bcl-XL,[4],effectively inhibited the expression of these genes
same,phosphorylation of tyrosine 705 and serine 727 residues of STAT3,[5],significantly inhibited phosphorylation of tyrosine 705 and serine 727 residues of STAT3
same,tumor growth,[6],significantly inhibited tumor growth
same,activity of caspase-3 in tumor tissues,[7],increased the activity of caspase-3
same,expression of Bcl-XL in tumor tissues,[7],significantly decreased the expression
same,expression of Ki67 in tumor tissues,[7],significantly decreased the expression of Ki67
same,expression of pro/active MMP2 in tumor tissues,[7],significantly decreased the expression
same,phosphorylation of STAT3 in tumor tissues,[7]; versus DMSO,phosphorylation of STAT3 significantly decreased
